{"source": "paper PMC12442245", "about": "“Activity Analysis of the P2X Receptor Antagonist PPADS against Signal Transducer and Activator of Transcription Proteins” (Chembiochem, 2025)", "key": {"[1]": {"molecular_target": "T1, STAT6 (Homo sapiens, UniProt P42226)", "T1 sequence (P42226 1-847)": "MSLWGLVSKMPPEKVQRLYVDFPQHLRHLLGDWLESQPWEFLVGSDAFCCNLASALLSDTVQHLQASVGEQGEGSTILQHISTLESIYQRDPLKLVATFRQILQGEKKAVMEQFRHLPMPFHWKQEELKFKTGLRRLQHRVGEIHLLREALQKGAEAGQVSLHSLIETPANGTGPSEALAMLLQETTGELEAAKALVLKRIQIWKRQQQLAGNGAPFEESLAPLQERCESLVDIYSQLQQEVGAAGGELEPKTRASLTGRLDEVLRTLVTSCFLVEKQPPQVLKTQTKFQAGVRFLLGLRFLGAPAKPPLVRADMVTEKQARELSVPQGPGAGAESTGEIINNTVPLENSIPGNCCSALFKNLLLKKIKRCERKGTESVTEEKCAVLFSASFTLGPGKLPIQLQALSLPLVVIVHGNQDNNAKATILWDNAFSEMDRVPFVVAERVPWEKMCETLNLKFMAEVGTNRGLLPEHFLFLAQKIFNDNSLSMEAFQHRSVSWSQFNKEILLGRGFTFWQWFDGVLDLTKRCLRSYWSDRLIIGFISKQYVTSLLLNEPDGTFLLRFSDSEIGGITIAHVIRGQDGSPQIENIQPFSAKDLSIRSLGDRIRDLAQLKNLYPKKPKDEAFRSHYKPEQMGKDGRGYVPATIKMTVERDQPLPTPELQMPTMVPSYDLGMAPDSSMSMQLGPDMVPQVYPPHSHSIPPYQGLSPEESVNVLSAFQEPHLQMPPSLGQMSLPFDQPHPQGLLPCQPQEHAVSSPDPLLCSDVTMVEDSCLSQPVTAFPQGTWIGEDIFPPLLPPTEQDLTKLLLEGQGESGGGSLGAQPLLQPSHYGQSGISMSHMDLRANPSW", "assay": "Competitive fluorescence polarization (FP) assay, STAT6", "assay_type": "binding", "settings": "no reducing agent, 1 h", "method": "Screening of chemical libraries […]\nPPADS was purchased […]\nfrom Sigma-Aldrich, and iso-PPADS from Bio-Techne.\n(§1) Fluorescence polarization assays\n(§2) Competitive fluorescence polarization (FP) assays for STAT1,[2] STAT3,[3] STAT4,[4] STAT5a,[5] STAT5b[6] and STAT6[1] were performed as previously described. Briefly, peptide binding to proteins was analyzed using the following carboxyfluorescein (CF) -labelled pepti des at a concentration of 10 nM: STAT1: 5-CF-GpYDKPHVL-OH, STAT3: 5-CF-GpYLPQTV -NH2, STAT4: 5-CF-GpYLPQNID-OH, STAT5a and STAT5b: 5-CF-GpYLVLDKW-OH, STAT6: 5- […]\nCFGp[…]-OH. Proteins were used at a final concentration representing the approximate Kd value for binding of the corresponding peptide to the protein, namely 65 nM for STAT1, 65 nM for STAT3, 35 nM for STAT4, 125 nM for STAT5a, 65 nM for STAT5b and 75 nM for STAT6. Assays were carried out in buffer containing 10 mM Tris/HCl, 50 mM NaCl, 1 mM EDTA, 0.1% NP-40 substitute and 2% DMSO, with 1 mM reducing agent where applicable, at pH 8.0. Proteins were incubated with compound for 1 h at room temperature before adding peptide and incubating for a further 1 h. FP was measured using an Infinite F500 plate reader (Tecan) and measurements were converted into percent inhibition according to […]"}, "[2]": {"molecular_target": "T2, STAT5b (Homo sapiens, UniProt P51692)", "T2 sequence (P51692 1-787)": "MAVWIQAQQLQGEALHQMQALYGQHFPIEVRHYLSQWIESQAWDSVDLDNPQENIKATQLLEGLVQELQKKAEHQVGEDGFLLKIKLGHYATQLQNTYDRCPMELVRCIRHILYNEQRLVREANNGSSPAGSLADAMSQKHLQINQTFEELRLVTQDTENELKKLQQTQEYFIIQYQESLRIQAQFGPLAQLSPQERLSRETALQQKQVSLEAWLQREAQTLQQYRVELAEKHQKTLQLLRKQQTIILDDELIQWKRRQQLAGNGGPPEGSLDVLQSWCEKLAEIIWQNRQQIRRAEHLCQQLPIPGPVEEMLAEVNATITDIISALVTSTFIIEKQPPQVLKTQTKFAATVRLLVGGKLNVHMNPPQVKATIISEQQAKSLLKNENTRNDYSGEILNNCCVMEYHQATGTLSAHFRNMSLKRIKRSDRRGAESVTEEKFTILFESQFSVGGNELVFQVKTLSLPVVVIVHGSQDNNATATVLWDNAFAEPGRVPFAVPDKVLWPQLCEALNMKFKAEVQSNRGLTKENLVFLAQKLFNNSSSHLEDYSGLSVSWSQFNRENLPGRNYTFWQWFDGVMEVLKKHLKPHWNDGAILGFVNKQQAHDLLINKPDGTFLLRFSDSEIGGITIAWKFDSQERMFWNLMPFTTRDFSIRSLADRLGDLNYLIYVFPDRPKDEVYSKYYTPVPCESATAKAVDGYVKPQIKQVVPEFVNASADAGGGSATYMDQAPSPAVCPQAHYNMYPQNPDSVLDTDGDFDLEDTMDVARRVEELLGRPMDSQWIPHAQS", "assay": "Competitive fluorescence polarization (FP) assay, STAT5b", "assay_type": "binding", "settings": "no reducing agent, 1 h", "description": "Screening of chemical libraries\nScreening of chemical libraries comprising approximately 5000 known bioactive compounds in fluorescence polarization-based assays against phosphorylation-dependent protein-protein interaction domains, including STAT proteins, has been described.[1] PPADS was purchased from Sigma-Aldrich, and iso-PPADS from Bio-Techne.\nas §1, §2\nCFGp[…]-OH. Proteins were used at a final concentration representing the approximate Kd value for binding of the corresponding peptide to the protein, namely 65 nM for STAT1, 65 nM for STAT3, 35 nM for STAT4, 125 nM for STAT5a, 65 nM for STAT5b and 75 nM for STAT6. […] FP was measured using an Infinite F500 plate reader (Tecan) and measurements were converted into percent inhibition according to the binding curve equation. Curves were plotted and best fits calculated using OriginPro […]"}}, "data": [{"smiles": "Cc1nc(/N=N/c2cc(S(=O)(=O)O)ccc2S(=O)(=O)O)c(COP(=O)(O)O)c(C=O)c1O", "note": "[iso‐PPADS]", "values": [{"measurement": "IC50", "setting": "[1]", "value": "66 ± 12", "unit": "µM"}, {"measurement": "IC50", "setting": "[2]", "value": "1.9 ± 0.1", "unit": "µM"}]}, {"smiles": "Cc1nc(/N=N/c2ccc(S(=O)(=O)O)cc2S(=O)(=O)O)c(COP(=O)(O)O)c(C=O)c1O", "note": "[PPADS, pyridoxalphosphate‐6‐azophenyl‐2',4'‐disulfonic acid]", "values": [{"measurement": "IC50", "setting": "[1]", "value": "20.1 ± 4.6", "unit": "µM"}, {"measurement": "IC50", "setting": "[2]", "value": "2 ± 0.3", "unit": "µM"}]}]}
